Experimental data as given in patent US10806694B2, “Nanoparticles for photodynamic therapy, X-ray induced photodynamic therapy, radiotherapy, radiodynamic therapy, chemotherapy, immunotherapy, and any combination thereof” (The University of Chicago, priority 2014, dated 2020).

What was measured:
[1] = system: human head and neck cancer cells SQ20B; assay: In vitro PDT cytotoxicity (MTS); format: cell-based; conditions: 5-100 μM ligand, 640 nm LED 100 mW/cm^2, 15 min (90 J/cm^2) or 30 min (180 J/cm^2)
Experimental: The cytotoxicity of DBP-UiO and H2DBP was evaluated in human head and neck cancer cells SQ20B which are resistant to cisplatin and conventional radiotherapy. SQ20B cells were seeded on 96-well plates at 2000 cells/well. The cells were treated with DBP-UiO and H2DBP at various ligand concentrations (5, 10, 20, 50 and 100 μM base on ligand concentrations) after a 24-h incubation. A further incubation of 4 h was allowed, followed by replacing the culture medium with 100 μL of fresh DMEM/F12 medium. The cells were irradiated with LED light (640 nm) at 100 mW/cm^2 for 15 min (total light dose 90 J/cm^2) or 30 min (total light dose 180 J/cm^2), respectively. The cells without irradiation treatment served as controls. The cells were further incubated to achieve a total incubation time of 72 h with DBP-UiO or H2DBP. The cell viability was detected by (3-(4,5-dimethylthiazol-2-yl)-5-(3-carboxymethoxyphenyl)-2-(4-sulfophenyl)-2H-tetra-zolium) (MTS) assay (Promega, Madison, Wis., United States of America).
To further confirm the PDT efficacy of DBP-UiO, SQ20B cancer cells were treated with H2DBP or DBP-UiO at various concentrations (5, 10, 20, 50 and 100 μM based on ligand concentrations), the cells were irradiated with LED light (640 nm, 100 mW/cm^2) for 15 min (total light dose 90 J/cm^2) or 30 min (total light dose 180 J/cm^2), respectively.

[2] = system: SQ20B subcutaneous xenograft murine models; assay: In vivo PDT efficacy; parameters: species or system mice; conditions: 3.5 mg/kg intratumoral, 180 J/cm^2, single treatment
Experimental: The PDT efficacy of DBP-UiO was investigated using SQ20B subcutaneous xenograft murine models. Tumor bearing mice were established by subcutaneous inoculation of SQ20B cell suspension (5×10^6 cells per mouse) into the right flank region of 6-week athymic female nude mice. Three groups were included for comparison: PBS as control, H2DBP, and DBP-UiO. When tumors reached 100 mm^3, PBS, H2DBP, and DBP-UiO were intratumorally injected to animals at a DBP dose of 3.5 mg/kg. At 12 h post-injection, mice were anesthetized with 2% (v/v) isoflurane and tumors were irradiated with a 640 nm LED for 30 min. The light intensity was measured as 100 mW/cm^2, and the total light dose was 180 J/cm^2. Both injection and PDT were performed once.
To evaluate the therapeutic efficacy, tumor growth and body weight evolution were monitored. The tumor size was measured with a digital caliper every day. Tumor volumes were calculated as follows: (width^2×length)/2. Finally, all mice were sacrificed on Day 8, and the excised tumors were photographed and weighed. Tumors were fixed with formalin. Paraffin-embedded 5 μm tumor sections were stained with hematoxylin and erosin (H&E) and observed with light microscopy (Pannoramic Scan Whole Slide Scanner, Perkin Elmer, Waltham, Mass., United States of America).
In vivo experiments on SQ20B subcutaneous xenograft murine models were carried out. […]

[3] = UV-visible absorption, extinction coefficient; format: physicochemical
Experimental: The UV-visible absorption spectra of H2DBP and DBP-UiO were acquired with a UV-vis spectrophotometer (UV-2401 PC, Shimadzu Corporation, Kyoto, Japan). The H2DBP solution and DBP-UiO NMOF suspension were prepared in 0.67 mM phosphate buffer saline (PBS). The absorption of standard solutions of H2DBP at concentrations of 0.2, 0.4, 0.6, 0.8, 1, 1.5, 4 and 8 mg/L were acquired and the standard curve was plotted by linear fitting of the absorbance at 402 nm. The extinction coefficients of H2DBP at 402 nm and 619 nm are 2.2×10^5 and 1.7×10^3 M^−1cm^−1, respectively.
UV-visible absorption spectroscopy confirmed the photophysical properties of chlorin-based PSs. H2DBC has a split Soret band at λmax=408 nm and four Q-bands at 504, 534, 591, and 643 nm. […] The lowest energy Q-band of DBC-UiO has thus red-shifted by 13 nm from DBP-UiO, with an ε value of 24600 M^−1·cm^−1. H2DBC has an ε value of 21800 M^−1·cm^−1 for the lowest energy Q-band.

CT26 cells [4] = assay: Apoptosis after PDT, Annexin V/dead cell kit, flow cytometry; format: cell-based, murine; conditions: 5 μM
Experimental: (§1) CT26 cells were incubated with 5 μM DBC-UiO or H2DBC followed by light irradiation at 0.1 W/cm^2 for 15 min (90 J/cm^2). The apoptosis induced by PDT treatment was determined with the Alexa Fluor 488 Annexin V/dead cell apoptosis kit by flow cytometry. […] Calreticulin (CRT) is a distinct biomarker exposed on the surface of cells undergoing ICD. The CRT expression was determined by flow cytometry and immunofluorescence to assess the ICD induced by DBC-UiO induced PDT. CT26 cells were treated with 5 μM DBC-UiO or H2DBC followed by light irradiation at 0.1 W/cm^2 for 15 min (90 J/cm^2). For flow cytometry analysis, cells were collected and stained with Alexa Fluor 488-CRT antibody and propidium iodide (PI). The fluorescence intensity of stained cells was gated on PI-negative cells. For immunostaining analysis, the cells were stained with AlexaFluor 488-CRT conjugated antibody and DAPI nuclei stain, and observed using confocal laser scanning microscopy (CLSM).

CT26 cells [5] = assay: Calreticulin (CRT) surface expression after PDT (immunogenic cell death); format: cell-based, murine; conditions: 5 μM
Experimental: as §1

| Compound | PDT efficacy (cell viability) [1] | tumor growth [2] | extinction coefficient at 402 nm ([3]; PBS) | extinction coefficient at 619 nm ([3]; PBS) | ε value of the lowest energy Q-band [3] | apoptosis or necrosis (CT26 cells [4]; in the dark) | apoptosis (CT26 cells [4]; light irradiation 90 J/cm^2) | surface CRT expression (CT26 cells [5]; light irradiation 90 J/cm^2) | surface CRT expression (CT26 cells [5]; without light irradiation) |
| --- | --- | --- | --- | --- | --- | --- | --- | --- | --- |
| O=C(O)c1ccc(-c2c3nc(cc4ccc([nH]4)c(-c4ccc(C(=O)O)cc4)c4nc(cc5ccc2[nH]5)C=C4)C=C3)cc1 [H2DBP, 5,15-di(p-benzoato)porphyrin] | moderate PDT efficacy only at 20 μM dose with 30 min light irradiation | slightly suppressed after PDT, however accelerated after 5 days and exhibited no difference to the control group at the endpoint | 220000 M⁻¹ cm⁻¹ | 1700 M⁻¹ cm⁻¹ | – | – | – | – | – |
| 5, 15-di(p-benzoato)chlorin [H2DBC] | – | – | – | – | 21800 M⁻¹ cm⁻¹ | No apoptosis or necrosis was observed | significant amounts of cells underwent apoptosis | significant amounts of CRT were detected | no surface CRT expression |
